Tests used:
TrkA = biological target: T1, TrkA (Homo sapiens, UniProt P04629); assay: TrkA biochemical assay (AlphaScreen); conditions: under the test conditions employed; read-out: IC50 toward kinase TrkA
T1 construct: purchased Upstate Biotech 14-571
Protocol: Compounds tested were dissolved in DMSO (1 μL) and added to a white 384-well plate (Costar #3705). […] Each sample was at 5% DMSO. The plate was then incubated for 40 minutes at room temperature.

Fms = biological target: T2, Fms (Homo sapiens, UniProt P07333); assay: Fms biochemical assay (AlphaScreen or 33P-ATP); conditions: under the test conditions employed; read-out: IC50 toward kinase Fms
T2 construct: purchased Upstate Biotech 14-551
T2 sequence (P07333 20-972): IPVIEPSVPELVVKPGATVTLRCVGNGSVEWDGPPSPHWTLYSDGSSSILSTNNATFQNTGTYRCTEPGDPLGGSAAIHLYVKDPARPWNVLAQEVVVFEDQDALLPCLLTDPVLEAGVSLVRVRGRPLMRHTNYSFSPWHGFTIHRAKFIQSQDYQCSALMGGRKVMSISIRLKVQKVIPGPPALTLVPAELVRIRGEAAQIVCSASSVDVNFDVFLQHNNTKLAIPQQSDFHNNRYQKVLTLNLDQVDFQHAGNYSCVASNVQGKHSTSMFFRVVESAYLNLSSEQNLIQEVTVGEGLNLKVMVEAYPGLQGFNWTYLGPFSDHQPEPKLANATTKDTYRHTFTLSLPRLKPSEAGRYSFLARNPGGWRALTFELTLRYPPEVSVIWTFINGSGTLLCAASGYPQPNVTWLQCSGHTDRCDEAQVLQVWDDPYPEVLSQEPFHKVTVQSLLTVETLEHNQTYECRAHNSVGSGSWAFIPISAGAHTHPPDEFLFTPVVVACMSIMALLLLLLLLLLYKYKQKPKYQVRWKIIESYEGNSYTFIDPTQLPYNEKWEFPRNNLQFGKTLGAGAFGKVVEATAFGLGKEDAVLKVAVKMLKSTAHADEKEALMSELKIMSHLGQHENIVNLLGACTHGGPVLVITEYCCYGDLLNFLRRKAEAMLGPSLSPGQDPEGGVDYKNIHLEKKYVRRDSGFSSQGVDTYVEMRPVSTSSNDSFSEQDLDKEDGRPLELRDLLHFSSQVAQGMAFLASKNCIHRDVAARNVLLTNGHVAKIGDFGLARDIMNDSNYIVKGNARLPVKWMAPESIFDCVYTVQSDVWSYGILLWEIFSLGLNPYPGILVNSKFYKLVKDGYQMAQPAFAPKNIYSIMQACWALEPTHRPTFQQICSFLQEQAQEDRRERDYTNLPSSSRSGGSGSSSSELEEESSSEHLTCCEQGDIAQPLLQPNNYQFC
Source text: Each sample was at 5% DMSO.

HGK = HGK (Homo sapiens, UniProt O95819); assay: HGK (MAP4K4) biochemical assay (AlphaScreen); conditions: under the test conditions employed; read-out: IC50 toward kinase HGK
Sequence of HGK (O95819 whole entry): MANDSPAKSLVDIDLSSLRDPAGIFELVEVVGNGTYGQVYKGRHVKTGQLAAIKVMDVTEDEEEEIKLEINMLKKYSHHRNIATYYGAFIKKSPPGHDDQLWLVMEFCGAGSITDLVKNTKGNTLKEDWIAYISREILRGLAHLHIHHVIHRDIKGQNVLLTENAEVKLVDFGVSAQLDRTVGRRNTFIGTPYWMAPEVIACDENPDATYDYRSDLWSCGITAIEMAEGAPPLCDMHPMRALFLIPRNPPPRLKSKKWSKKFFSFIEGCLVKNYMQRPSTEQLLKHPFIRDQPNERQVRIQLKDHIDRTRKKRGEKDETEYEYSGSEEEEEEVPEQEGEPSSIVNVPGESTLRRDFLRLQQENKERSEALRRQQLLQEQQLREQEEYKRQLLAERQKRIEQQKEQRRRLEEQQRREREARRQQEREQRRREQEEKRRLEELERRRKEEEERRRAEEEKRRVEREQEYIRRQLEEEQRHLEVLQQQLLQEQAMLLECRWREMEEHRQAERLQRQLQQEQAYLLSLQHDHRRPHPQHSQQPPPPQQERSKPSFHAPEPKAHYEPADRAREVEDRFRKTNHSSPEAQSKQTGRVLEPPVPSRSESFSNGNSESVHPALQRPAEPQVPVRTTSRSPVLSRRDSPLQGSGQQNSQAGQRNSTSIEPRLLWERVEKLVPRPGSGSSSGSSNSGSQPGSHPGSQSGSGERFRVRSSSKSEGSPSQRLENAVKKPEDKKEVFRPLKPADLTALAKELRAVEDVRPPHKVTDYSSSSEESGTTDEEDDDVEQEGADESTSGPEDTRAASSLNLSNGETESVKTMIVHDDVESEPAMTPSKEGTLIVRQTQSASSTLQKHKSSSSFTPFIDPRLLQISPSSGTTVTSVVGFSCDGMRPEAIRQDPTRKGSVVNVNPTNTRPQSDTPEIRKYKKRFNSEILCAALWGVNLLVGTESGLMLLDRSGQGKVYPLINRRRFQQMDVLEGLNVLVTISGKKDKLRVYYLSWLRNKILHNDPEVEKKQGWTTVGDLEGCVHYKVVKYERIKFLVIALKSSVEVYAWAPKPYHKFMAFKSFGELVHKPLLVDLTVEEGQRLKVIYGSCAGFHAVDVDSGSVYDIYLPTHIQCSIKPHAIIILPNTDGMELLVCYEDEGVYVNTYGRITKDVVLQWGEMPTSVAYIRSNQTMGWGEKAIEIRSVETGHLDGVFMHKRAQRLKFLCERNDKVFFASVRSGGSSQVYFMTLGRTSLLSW
Protocol: Substrate was 10 nM biotin-ERM (T567/T564/T558, Cell Signaling, Inc., cat#1344). MAP4K4 kinase was at 0.5 ng per sample. After incubation of the kinase reaction for 40 min at room temperature, 5 μl of donor beads and protein A acceptor beads (Perkin Elmer Life Science, cat#67606017) at final concentration 1 μg/ml in stop buffer (20 mM Tris, pH 7.4, 200 mM Nacl, 100 mM EDTA, 0.03% BSA) was added, along with Phospho-ERM Antibody (T567/T564/T558, Cell Signaling, Inc., cat#3141) at 1:1000 dilution. […] Phosphorylated substrate results in binding of the antibody which binds to protein A acceptor bead and association of the donor and acceptor beads is such that the signal correlates with kinase activity.

Kit = biological target: T3, Kit (Homo sapiens, UniProt P10721); assay: c-kit biochemical assay (AlphaScreen or 33P-ATP); conditions: under the test conditions employed; read-out: IC50 toward kinase Kit
T3 construct: P1332.N6 BI PTP KIT M552-K948-X COD; made in house; host or cells: E. coli BL21(DE3)RIL, co-expressed with PTP1B
T3 sequence (P10721 552-948): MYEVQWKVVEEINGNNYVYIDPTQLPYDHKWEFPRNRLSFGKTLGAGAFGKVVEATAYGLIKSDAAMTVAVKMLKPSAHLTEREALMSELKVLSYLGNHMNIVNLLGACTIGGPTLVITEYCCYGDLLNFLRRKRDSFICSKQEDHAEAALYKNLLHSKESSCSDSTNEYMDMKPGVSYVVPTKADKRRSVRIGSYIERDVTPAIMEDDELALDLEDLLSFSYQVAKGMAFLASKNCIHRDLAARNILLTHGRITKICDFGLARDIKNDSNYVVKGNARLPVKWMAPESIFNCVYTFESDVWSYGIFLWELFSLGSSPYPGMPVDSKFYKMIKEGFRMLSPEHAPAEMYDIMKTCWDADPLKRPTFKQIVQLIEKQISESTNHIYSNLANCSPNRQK
Protocol: C-kit kinase was at 1 ng per sample.
The c-kit enzyme used in the above assay was either obtained from Cell Signaling Technology (Cat. #7754) or was prepared as follows: A plasmid encoding kit (DNA and encoded protein sequences shown below) was engineered using common polymerase chain reaction (PCR) methods. Complementary DNA cloned from various human tissues were purchased from Invitrogen, and these were used as substrates in the PCR reactions. Specific custom synthetic oligonucleotide primers were designed to initiate the PCR product, and also to provide the appropriate restriction enzyme cleavage sites for ligation with the plasmids. The entire sequence encoding the enzyme was made through a gene synthesis procedure, using custom synthetic oligonucleotides covering the entire coding sequence (Invitrogen, see below).

T1 sequence (P04629 33-796): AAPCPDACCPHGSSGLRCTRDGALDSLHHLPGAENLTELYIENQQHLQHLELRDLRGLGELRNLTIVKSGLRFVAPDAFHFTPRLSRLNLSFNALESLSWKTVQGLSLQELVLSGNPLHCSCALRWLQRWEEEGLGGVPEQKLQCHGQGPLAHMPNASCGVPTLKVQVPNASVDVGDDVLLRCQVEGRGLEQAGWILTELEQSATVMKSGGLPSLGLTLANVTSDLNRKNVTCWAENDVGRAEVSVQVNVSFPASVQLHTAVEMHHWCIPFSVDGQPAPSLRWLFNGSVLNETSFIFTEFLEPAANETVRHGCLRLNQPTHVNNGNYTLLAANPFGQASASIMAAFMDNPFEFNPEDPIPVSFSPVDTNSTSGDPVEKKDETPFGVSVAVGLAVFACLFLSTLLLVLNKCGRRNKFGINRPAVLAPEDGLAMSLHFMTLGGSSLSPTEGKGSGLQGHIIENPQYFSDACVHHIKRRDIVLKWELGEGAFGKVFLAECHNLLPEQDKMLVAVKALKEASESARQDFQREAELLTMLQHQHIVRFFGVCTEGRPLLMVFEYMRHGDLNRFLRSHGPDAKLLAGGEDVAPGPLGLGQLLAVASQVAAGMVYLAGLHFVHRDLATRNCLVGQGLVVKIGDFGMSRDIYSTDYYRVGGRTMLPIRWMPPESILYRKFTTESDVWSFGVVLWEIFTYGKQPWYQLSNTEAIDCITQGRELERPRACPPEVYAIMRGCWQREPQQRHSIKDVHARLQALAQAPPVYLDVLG

IC50 (Fms)	SMILES	other results
	COc1cc(Cc2c[nH]c3ncccc23)c(F)cc1OCc1nc2ccccc2[nH]1 [P-1978, 2-[5-Fluoro-2-methoxy-4-(1H-pyrrolo[2,3-b]pyridin-3-ylmethyl)-phenoxymethyl]-1H-benzoimidazole]	IC50 (TrkA): ≤ 10 µM
≤ 10 µM	CCOc1c(OC(C)c2ccncc2)cccc1C(=O)c1c[nH]c2ncccc12 (stereo not shown) [P-2135, [2-Ethoxy-3-(1-pyridin-4-yl-ethoxy)-phenyl]-(1H-pyrrolo[2,3-b]pyridin-3-yl)-methanone]	
≤ 10 µM	O=C(c1cccc(OCc2ccc(Cl)cc2F)c1OCC(F)F)c1c[nH]c2ncccc12 [P-2119, [3-(4-Chloro-2-fluoro-benzyloxy)-2-(2,2-difluoro-ethoxy)-phenyl]-(1H-pyrrolo[2,3-b]pyridin-3-yl)-methanone]	
≤ 10 µM	Fc1ccc(OCc2ccccc2)c(F)c1Cc1c[nH]c2ncccc12 [P-1803, 3-(3-Benzyloxy-2,6-difluoro-benzyl)-1H-pyrrolo[2,3-b]pyridine]	
≤ 10 µM	COc1ccc2[nH]c(COc3cc(F)c(Cc4c[nH]c5ncccc45)cc3OC)nc2c1 [P-2113, 2-[5-Fluoro-2-methoxy-4-(1H-pyrrolo[2,3-b]pyridin-3-ylmethyl)-phenoxymethyl]-6-methoxy-1H-benzoimidazole]	IC50 (HGK): ≤ 10 µM
	COc1cc(Cc2c[nH]c3ncc(Cl)cc23)c(F)cc1OCc1nc2ccccc2[nH]1 [P-1976, 2-[4-(5-Chloro-1H-pyrrolo[2,3-b]pyridin-3-ylmethyl)-5-fluoro-2-methoxy-phenoxymethyl]-1H-benzoimidazole]	IC50 (TrkA): ≤ 10 µM
	COc1cnc2[nH]cc(Cc3cc(OC)c(OCc4ccc(Cl)cc4F)cc3F)c2c1 [P-1885, 3-[4-(4-Chloro-2-fluoro-benzyloxy)-2-fluoro-5-methoxy-benzyl]-5-methoxy-1H-pyrrolo[2,3-b]pyridine]	IC50 (TrkA): ≤ 10 µM
≤ 10 µM	CCOc1c(OC(C)c2ccccc2F)cccc1C(=O)c1c[nH]c2ncccc12 (stereo not shown) [P-2133, {2-Ethoxy-3-[1-(2-fluoro-phenyl)-ethoxy]-phenyl}-(1H-pyrrolo[2,3-b]pyridin-3-yl)-methanone]	
≤ 10 µM	CCOc1c(OCc2sc(C)nc2C)cccc1C(=O)c1c[nH]c2ncccc12 [P-2124, [3-(2,4-Dimethyl-thiazol-5-ylmethoxy)-2-ethoxy-phenyl]-(1H-pyrrolo[2,3-b]pyridin-3-yl)-methanone]	
≤ 10 µM	CCOc1c(OCc2ccc(Cl)cc2F)cccc1C(=O)c1c[nH]c2ncccc12 [P-2123, [3-(4-Chloro-2-fluoro-benzyloxy)-2-ethoxy-phenyl]-(1H-pyrrolo[2,3-b]pyridin-3-yl)-methanone]	
≤ 10 µM	CCOc1c(OCc2ccc(-n3ccnc3)cc2)cccc1C(=O)c1c[nH]c2ncccc12 [P-2131, [2-Ethoxy-3-(4-imidazol-1-yl-benzyloxy)-phenyl]-(1H-pyrrolo[2,3-b]pyridin-3-yl)-methanone]	
≤ 10 µM	CCOc1c(OCc2ccccc2F)cccc1C(=O)c1c[nH]c2ncccc12 [P-2127, [2-Ethoxy-3-(2-fluoro-benzyloxy)-phenyl]-(1H-pyrrolo[2,3-b]pyridin-3-yl)-methanone]	
≤ 10 µM	CCOc1c(OCc2ccc(N3CCOCC3)nc2)cccc1C(=O)c1c[nH]c2ncccc12 [P-2128, [2-Ethoxy-3-(6-morpholin-4-yl-pyridin-3-ylmethoxy)-phenyl]-(1H-pyrrolo[2,3-b]pyridin-3-yl)-methanone]	
≤ 10 µM	Fc1cc(OCc2nc3ccccc3[nH]2)cc(F)c1Cc1c[nH]c2ncccc12 [P-2102, 2-[3,5-Difluoro-4-(1H-pyrrolo[2,3-b]pyridin-3-ylmethyl)-phenoxymethyl]-1H-benzoimidazole]	IC50 (HGK): ≤ 10 µM
≤ 10 µM	CCOc1c(OCc2c(F)cc(F)cc2F)cccc1C(=O)c1c[nH]c2ncccc12 [P-2137, [2-Ethoxy-3-(2,4,6-trifluoro-benzyloxy)-phenyl]-(1H-pyrrolo[2,3-b]pyridin-3-yl)-methanone]	IC50 (Kit): ≤ 10 µM
≤ 10 µM	Fc1ccc(OCC(F)(F)F)c(Cl)c1Cc1c[nH]c2ncccc12 [P-2148, 3-[2-Chloro-6-fluoro-3-(2,2,2-trifluoro-ethoxy)-benzyl]-1H-pyrrolo[2,3-b]pyridine]	IC50 (Kit): ≤ 10 µM
≤ 10 µM	CCOc1c(OCc2ccc(F)cc2F)cccc1C(=O)c1c[nH]c2ncccc12 [P-2132, [3-(2,4-Difluoro-benzyloxy)-2-ethoxy-phenyl]-(1H-pyrrolo[2,3-b]pyridin-3-yl)-methanone]	

IC50 (Fms)	SMILES	other results
≤ 10 µM	O=C(c1cccc(OCc2ccc(Cl)cc2)c1OCCF)c1c[nH]c2ncccc12 [P-2118, [3-(4-Chloro-benzyloxy)-2-(2-fluoro-ethoxy)-phenyl]-(1H-pyrrolo[2,3-b]pyridin-3-yl)-methanone]	
≤ 10 µM	O=C(c1cccc(OCc2c(F)cc(F)cc2F)c1OCC1CC1)c1c[nH]c2ncc(Cl)cc12 [P-2141, (5-Chloro-1H-pyrrolo[2,3-b]pyridin-3-yl)-[2-cyclopropylmethoxy-3-(2,4,6-trifluoro-benzyloxy)-phenyl]-methanone]	
≤ 10 µM	CCOc1c(OCc2ccc(C(F)(F)F)nc2)cccc1C(=O)c1c[nH]c2ncccc12 [P-2129, [2-Ethoxy-3-(6-trifluoromethyl-pyridin-3-ylmethoxy)-phenyl]-(1H-pyrrolo[2,3-b]pyridin-3-yl)-methanone]	
≤ 10 µM	CCOc1c(OCCCN2CCOCC2)cccc1C(=O)c1c[nH]c2ncccc12 [P-2126, [2-Ethoxy-3-(3-morpholin-4-yl-propoxy)-phenyl]-(1H-pyrrolo[2,3-b]pyridin-3-yl)-methanone]	
≤ 10 µM	COc1cc(Cc2c[nH]c3ncc(Cl)cc23)c(F)cc1OCc1nc2cc(F)ccc2[nH]1 [P-2179, 2-[4-(5-Chloro-1H-pyrrolo[2,3-b]pyridin-3-ylmethyl)-5-fluoro-2-methoxy-phenoxymethyl]-5-fluoro-1H-benzoimidazole]	IC50 (TrkA): ≤ 10 µM
≤ 10 µM	COc1cc(Cc2c[nH]c3ncccc23)ccc1OCc1ccc(CN2CCN(C)CC2)cc1 [P-1821, 3-{3-Methoxy-4-[4-(4-methyl-piperazin-1-ylmethyl)-benzyloxy]-benzyl}-1H-pyrrolo[2,3-b]pyridine]	
	COc1cc(Cc2c[nH]c3ncccc23)c(F)cc1OCc1cccnc1 [P-2038, 3-[2-Fluoro-5-methoxy-4-(pyridin-3-ylmethoxy)-benzyl]-1H-pyrrolo[2,3-b]pyridine]	IC50 (TrkA): ≤ 10 µM
≤ 10 µM	CCOc1c(OCc2cc(C)nn2C)cccc1C(=O)c1c[nH]c2ncccc12 [P-2125, [3-(2,5-Dimethyl-2H-pyrazol-3-ylmethoxy)-2-ethoxy-phenyl]-(1H-pyrrolo[2,3-b]pyridin-3-yl)-methanone]	
≤ 10 µM	COc1cc(Cc2c[nH]c3ncc(C)cc23)c(F)cc1OCc1nc2cc(Cl)ccc2[nH]1 [P-2184, 5-Chloro-2-[5-fluoro-2-methoxy-4-(5-methyl-1H-pyrrolo[2,3-b]pyridin-3-ylmethyl)-phenoxymethyl]-1H-benzoimidazole]	IC50 (HGK): ≤ 10 µM; IC50 (Kit): ≤ 10 µM
≤ 10 µM	CCOc1c(OCc2cccc(C)n2)cccc1C(=O)c1c[nH]c2ncccc12 [P-2122, [2-Ethoxy-3-(6-methyl-pyridin-2-ylmethoxy)-phenyl]-(1H-pyrrolo[2,3-b]pyridin-3-yl)-methanone]	
≤ 10 µM	CCOc1c(OC(C)c2ccc(Cl)cc2Cl)cccc1C(=O)c1c[nH]c2ncccc12 (stereo not shown) [P-2138, {3-[1-(2,4-Dichloro-phenyl)-ethoxy]-2-ethoxy-phenyl}-(1H-pyrrolo[2,3-b]pyridin-3-yl)-methanone]	
≤ 10 µM	CCOc1c(OCc2cc(C)n(C)n2)cccc1C(=O)c1c[nH]c2ncccc12 [P-2134, [3-(1,5-Dimethyl-1H-pyrazol-3-ylmethoxy)-2-ethoxy-phenyl]-(1H-pyrrolo[2,3-b]pyridin-3-yl)-methanone]	
≤ 10 µM	O=C(c1cccc(OCc2ccc(Cl)cc2F)c1OCC1CC1)c1c[nH]c2ncccc12 [P-2120]	IC50 (Kit): ≤ 10 µM
≤ 10 µM	CCOc1c(OCc2ccc(Cl)cc2Cl)cccc1C(=O)c1c[nH]c2ncccc12 [P-2130, [3-(2,4-Dichloro-benzyloxy)-2-ethoxy-phenyl]-(1-pyrrolo[2,3-b]pyridin-3-yl)-methanone]	IC50 (Kit): ≤ 10 µM
	COc1cc(Cc2c[nH]c3ncccc23)c(F)cc1OCc1ccc(Cl)cc1 [P-1844, 3-[4-(4-Chloro-benzyloxy)-2-fluoro-5-methoxy-benzyl]-1H-pyrrolo[2,3-b]pyridine]	IC50 (TrkA): ≤ 10 µM
≤ 10 µM	O=C(c1cccc(OCc2ccc(Cl)cc2F)c1OCC(F)(F)F)c1c[nH]c2ncccc12 [P-2139, [3-(4-Chloro-2-fluoro-benzyloxy)-2-(2,2,2-trifluoro-ethoxy)-phenyl]-(1H-pyrrolo[2,3-b]pyridin-3-yl)-methanone]	IC50 (Kit): ≤ 10 µM
